Earlier results, collected in patent US20230346989A1, “FLUOROCARBON NANOEMULSIONS AND USES THEREOF IN IMAGING” (The Regents of the University of California, priority 2020, published 2023).

Key:
tumors = details: depending on the model; cited from earlier work
[1] = in vivo; cited from earlier work

SMILES | suppression of tumor growth (tumors) | organ-retention half-life [1]
C[C@H](NC(=O)c1c(N)nn2cccnc12)c1cc2cccc(C#Cc3cnn(C)c3)c2c(=O)n1-c1ccccc1 [IPI549] | 50-100% | 
FC(F)(F)C(F)(F)C(F)(F)C(F)(F)C(F)(F)C(F)(F)C(F)(F)C(F)(F)Br [PFOB, perfluorooctyl bromide] |  | 5.1 days
